The values that follow come from US7858637B2, “Administration of TLR7 ligands and prodrugs thereof for treatment of infection by hepatitis C virus” (priority 2003, dated 2010).

The melting point is the temperature of the solid-liquid transition.

Data set [1] concerns human peripheral blood mononuclear cells (PBMC). Briefly: PBMC assay of interferon alpha release (masking). The data set is classed as cell-based. The settings on record: Homo sapiens, PBMC, read-out: Amount of INFa relative to that induced by isatoribine at 100 μM. The protocol:
A typical experiment would use human peripheral blood mononuclear cells (PBMC) isolated from a healthy donor and placed in replicate cell culture wells; typically, 2×10^6 to 5×10^6 cells are placed in each well. The PBMC are incubated in the absence of test compounds at 37° C. in a humidified atmosphere containing 5% CO2 for 24 hours to allow stabilization to the culture conditions, and then 100 micromolar isatoribine, the TLR7 ligand and a corresponding TLR7 ligand prodrug are added to separate wells containing PBMC from the same donor; untreated controls are included. The concentrations of TLR7 ligand and TLR7 ligand prodrug may be varied to suit the particular experiment, and the PBMC cultures are then incubated at 37° C. in a humidified atmosphere containing 5% CO2 for a period of time ranging from two hours to 48 hours. Samples of cell culture supernate media are taken during the incubation. These are assayed for cytokine production by ELISA. Additionally the amount of TLR7 ligand and TLR7 ligand prodrug remaining at the end of the incubation may be assayed by LC-MS. Cytokine production is calculated relative to production in the isatoribine control, following subtraction of the cytokine production in untreated controls.
Thus, if the TLR7 ligand generates more interferon alpha (a conveniently measured cytokine) than does the corresponding TLR7 ligand prodrug after a similar duration of exposure and concentration, the TLR7 ligand prodrug may be deemed a “masked” TLR7 ligand prodrug.

Data set [2] is described as follows: Toxicology studies, GI tolerance in beagle dogs. The data set is classed as in vivo, beagle dog. The settings on record: dogs, oral val-isatoribine. The text has this: We compared in the dog the oral toxicology of 21 and 24, and the intravenous toxicology of 21. We observed that the oral toxicology of 24 was much more like intravenous 21 than it was like oral 21.

The subject of another data set is interferon alpha. Briefly: Interferon alpha plasma concentrations in mice. The data set is classed as in vivo, mouse. From the text: Not only can one measure the plasma concentrations of isatoribine arising from oral administration of the said prodrug(s) but also the extensive immunological research conducted in the mouse has provided reagents suitable for measuring the levels of interferon alpha, a cytokine of interest reflecting one of the desired biologic activities of isatoribine.

The target of another data set is T1, human TLR7 (Homo sapiens, UniProt Q9NYK1).
T1 sequence (Q9NYK1 27-1049): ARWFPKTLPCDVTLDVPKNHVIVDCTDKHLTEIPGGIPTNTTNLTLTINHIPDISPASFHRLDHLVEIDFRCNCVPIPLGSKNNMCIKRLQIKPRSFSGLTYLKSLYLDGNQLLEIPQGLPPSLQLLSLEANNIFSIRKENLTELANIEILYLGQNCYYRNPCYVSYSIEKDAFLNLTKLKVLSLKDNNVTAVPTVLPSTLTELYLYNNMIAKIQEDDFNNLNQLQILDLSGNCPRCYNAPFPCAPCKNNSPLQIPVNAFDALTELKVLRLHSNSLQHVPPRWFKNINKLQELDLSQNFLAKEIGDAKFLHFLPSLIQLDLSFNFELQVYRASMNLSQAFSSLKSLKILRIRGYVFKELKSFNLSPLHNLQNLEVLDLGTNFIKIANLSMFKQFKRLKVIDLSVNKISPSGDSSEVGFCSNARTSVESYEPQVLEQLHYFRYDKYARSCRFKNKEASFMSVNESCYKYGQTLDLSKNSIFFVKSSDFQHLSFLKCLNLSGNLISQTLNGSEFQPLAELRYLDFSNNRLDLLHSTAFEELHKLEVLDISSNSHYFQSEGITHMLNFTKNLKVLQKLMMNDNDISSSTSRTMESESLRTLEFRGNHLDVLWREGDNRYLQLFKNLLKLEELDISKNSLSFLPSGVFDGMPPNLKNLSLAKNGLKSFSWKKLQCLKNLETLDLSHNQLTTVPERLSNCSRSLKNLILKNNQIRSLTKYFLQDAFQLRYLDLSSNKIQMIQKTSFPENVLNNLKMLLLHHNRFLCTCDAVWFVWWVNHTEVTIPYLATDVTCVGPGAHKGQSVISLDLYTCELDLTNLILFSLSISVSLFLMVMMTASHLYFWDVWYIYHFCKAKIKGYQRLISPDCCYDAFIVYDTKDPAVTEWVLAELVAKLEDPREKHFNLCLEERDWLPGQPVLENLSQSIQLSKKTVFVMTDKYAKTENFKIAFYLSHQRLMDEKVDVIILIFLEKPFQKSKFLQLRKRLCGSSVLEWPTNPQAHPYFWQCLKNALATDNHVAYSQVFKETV
Briefly: HEK293-hTLR7 NF-kB luciferase reporter (C23) assay. The following applies: read-out: mean fold induction of luciferase activity compared to the no drug control. As to the method: A stable HEK293-hTLR7 cell line was obtained from Invivogen (San Diego, Calif.), transfected with pNiFty2-Luc, an NF-kB inducible luciferase reporter plasmid (Invivogen) and (dual) stable transfectants selected. The resultant dual (hTLR7/pNiFty2-Luc) cell lines were functionally tested by response to loxoribine and isatoribine as measured by fold luciferase induction relative to a no drug control. […] See, e.g., Hemmi H. et al., Nat.
For a typical C23 assay, cells are seeded at 6×10^4 cells/well in 96 well plates and 4-24 hours later are treated with various concentrations of compound. After 2-48 hours exposure the cell monolayers are lyzed with passive lysis buffer (Promega) and the firefly luciferase assay carried out using the luciferase assay reagent (Promega) as specified by the manufacturer. Relative luciferase activities are expressed as folds of induction compared to the no drug control. A two-fold induction over background is considered a bona fide TLR7 agonist, dependent on this being a statistically significant increase.
In Table 1, isatoribine, was added to C23 cells for forty-eight hours, and the cells were then harvested and assayed for luciferase activity. Each time-point was assayed in triplicate.
Each time-point was assayed in triplicate.
On the technique in general: A reporter such as luciferase makes a cellular process visible.

A further data set relates to HCV replicon. As to the kind of experiment: HCV replicon-based viral bioassay with supernatants of compound-treated PBMC. The class given is cell-based, hepatitis C virus. As to the method: A quantitative assay was developed which is based on measuring the activity of the luciferase reporter gene that was integrated into an HCV replicon. By using this system, interferons from TLR7 agonist-treated PBMCs were measured and their inhibitory activity was assessed using the luciferase reporter replicon.
Human PBMCs isolated from a healthy donor were placed in replicate cell culture wells (5×10^6 cells per well). The PBMCs are incubated in the absence of test compounds at 37° C. in a humidified atmosphere containing 5% CO2 for 24 hours to allow stabilization to the culture conditions, and then the TLR7 ligand or a drug free control is added to replicate wells containing PBMCs from the same donor. The concentrations of TLR7 ligand may be varied to suit the particular experiment, and the PBMC cultures are then incubated at 37° C. in a humidified atmosphere containing 5% CO2 for eight hours. Samples of cell culture supernatant are taken at the eight hour time point (or twenty four hour time point in case of Loxoribine and its prodrugs) from TLR7 ligand treated and control wells and are assayed for interferon-alpha production by ELISA. Supernatants from compound-treated cells and a no-drug control were diluted at 1:10, 1:100, and 1:1000 in RPMI media and applied to a 96-well plate of Huh7 hepatocyte cells containing the luciferase reporter replicon. Cells were incubated for 48 hours at 37° C. in a tissue culture incubator.
After the incubation period, the 96-well plates are washed 2× with PBS and are lysed with passive lysis buffer (Promega). Plates are shaken at room temperature for 20 minutes and standard luciferase assay reagent (Promega) is added to each well by injection and the plate is read on an Lmax luminometer (Molecular Devices).
A supernatant collected from PBMC cells non-exposed to the compound and diluted as specified in the first column was used as a control (“Blank supernatant”). The PBMC cells were isolated from a single blood donor as specified.

Another data set relates to HCV. The settings on record: treatment of HCV, Pockros et al., Gastroenterology 2003; cited from earlier work.
Setting [3] is: isatoribine equivalent applied dose 8.1 mg/kg.
Where [4] appears, read: isatoribine equivalent applied dose 16 mg/kg.
The mark [5] stands for this setting: isatoribine equivalent applied dose 32 mg/kg.
Setting [6] is: isatoribine equivalent applied dose 64 mg/kg.

Structures are written as SMILES. Where a name gives a salt, the structure may show the parent alone. Read-outs that look alike come from different tables or passages of the source.

Compound `CC(=O)OC[C@H]1O[C@@H](n2c(=O)sc3c(=O)[nH]c(N)nc32)[C@H](OC(C)=O)[C@@H]1OC(C)=O` registered a melting point of 198 to 199 °C.
Turning to `Nc1ncc2sc(=O)n([C@@H]3O[C@H](CO)[C@@H](O)[C@H]3O)c2n1`, the melting point was 220 °C (dec.).
Consider `CC(C)[C@H](N)C(=O)OC[C@H]1O[C@@H](n2c(=O)sc3c(=O)[nH]c(N)nc32)[C@H](O)[C@@H]1O` (as salt: hydrochloride) [Compound 24, 5-Amino-3-(5′-O-L-valinyl-β-D-ribofuranosyl)thiazolo[4,5-d]pyrimidine-2,7-dione Dihydrochloride], for which the melting point was 166 to 168 °C (dec.).
Turning to `CC(C)[C@H](N)C(=O)OC[C@H]1O[C@@H](n2c(=O)sc3c(O)nc(N)nc32)[C@H](O)[C@@H]1O` [Compound 24, 5-Amino-3-(5′-O-L-valinyl-β-D-ribofuranosyl)thiazolo[4,5-d]pyrimidine-2,7-dione Dihydrochloride], the Emax at 100 µM in data set [1] (Table 9, 100 μM, 8 hours exposure, same blood donor) was determined as 1%. Moreover, the “Emesis or loose stool” value in data set [2] (setting [3]), in data set [2] (setting [4]), in data set [2] (setting [5]) and in data set [2] (setting [6]) was “Neg” throughout. Besides, the “GI lesions or irritation” value in data set [2] (setting [3]), in data set [2] (setting [4]), in data set [2] (setting [5]), in data set [2] (setting [6]), in data set [2] (isatoribine equivalent applied dose 130 mg/kg) and in data set [2] (isatoribine equivalent applied dose 260 mg/kg) was “Neg” in each case. Further, the “GI lesions or irritation” value in data set [2] (isatoribine equivalent applied dose 390 mg/kg) was “Neg”. In the data set on interferon alpha (mice, oral dosing), the “increase of the magnitude of both the average and peak interferon response over isatoribine” value worked out at 100%. Besides, in the data set on interferon alpha (mice, oral, 50 mg/kg isatoribine molar equivalent vs intravenous isatoribine 25 mg/kg, FIG. 1), the “levels of isatoribine and interferon relative to those after intravenous isatoribine” value is on record as “approximately 50%”. In addition, in the data set with interferon alpha (oral dosing, data of Tables 15, 16 and 17), the “mice with detectable interferon in their plasma” value is given as 10 of the 30.
With `COCCOc1nc(N)c2nc(O)n(Cc3ccccc3)c2n1` [Compound 29, 6-Amino-9-benzyl-2-(2-methoxy-ethoxy)-9H-purin-8-ol], at human TLR7, the fold induction at 1 µM was 20.8. In addition, on human TLR7, the fold induction at 3.2 µM came out at 37.3. Besides, at human TLR7, the fold induction at 10 µM stood at 47.5. Further, on human TLR7, the fold induction at 32 µM worked out at 48.4. The Emax at 0.1 µM in data set [1] (Table 14, 0.1 μM, 24 hours exposure) stood at 128%. In addition, the HCV replicon inhibition in the data set with HCV replicon (Table 8 No. 1, PBMC exposed 8 hours to 0.1 μM, a TFA salt, donor FL76418, supernatant dilution 1:10) worked out at 100%; in the data set on HCV replicon (Table 8 No. 1, PBMC exposed 8 hours to 0.1 μM, a TFA salt, donor FL76418, supernatant dilution 1:100) it was 73%; with HCV replicon (Table 8 No. 1, PBMC exposed 8 hours to 0.1 μM, a TFA salt, donor FL76418, supernatant dilution 1:1000), 0%; in the data set with HCV replicon (Table 8 No. 2, PBMC exposed 8 hours to 0.1 μM, a TFA salt, donor FL76418, supernatant dilution 1:10) it was 100%; in the data set on HCV replicon (Table 8 No. 2, PBMC exposed 8 hours to 0.1 μM, a TFA salt, donor FL76418, supernatant dilution 1:100), 64%; in the data set on HCV replicon (Table 8 No. 2, PBMC exposed 8 hours to 0.1 μM, a TFA salt, donor FL76418, supernatant dilution 1:1000) it was 9%.
As for `CCOCc1nc2c(N)nc3ccccc3c2n1CC(C)(C)O` [Compound 38, 1-(4-amino-2-ethoxymethyl-imidazo[4,5-c]quinolin-1-yl)-2-methyl-propan-2-ol], in data set [1] (24 h), the Emax at 100 µM stood at 9%. Also, the HCV replicon inhibition with HCV replicon (Table 6 No. 1, PBMC exposed 8 hours to 10 μM, donor FL75287, supernatant dilution 1:10) is 100%; in the data set on HCV replicon (Table 6 No. 1, PBMC exposed 8 hours to 10 μM, donor FL75287, supernatant dilution 1:100), 98%; in the data set with HCV replicon (Table 6 No. 1, PBMC exposed 8 hours to 10 μM, donor FL75287, supernatant dilution 1:1000), 21%; with HCV replicon (Table 6 No. 2, PBMC exposed 8 hours to 10 μM, donor FL75287, supernatant dilution 1:10), 100%; in the data set on HCV replicon (Table 6 No. 2, PBMC exposed 8 hours to 10 μM, donor FL75287, supernatant dilution 1:100), 88%; in the data set with HCV replicon (Table 6 No. 2, PBMC exposed 8 hours to 10 μM, donor FL75287, supernatant dilution 1:1000), 6%. The “anti-HCV effect at tolerated oral doses” value with HCV is on record as “failed to show anti-HCV effect”.
With `CC(=O)O[C@@H]1[C@H](OC(C)=O)[C@@H](CO)O[C@H]1n1c(=O)sc2cnc(N)nc21` [Compound 93, 5-Amino-3-(2′,3′-di-O-acetyl-β-D-ribofuranosyl)-3H-thiazolo[4,5-d]pyrimidin-2-one], the melting point was 109 to 111 °C. Also, in data set [1] (Table 9, 100 μM, 24 hours exposure, same blood donor), the Emax at 100 µM turned out to be 0%.
